The values below come from patent US12624039B2, “BTK inhibitors” (DIZAL (JIANGSU) PHARMACEUTICAL CO., LTD., priority 2020, dated 2026).

Data set [1] deals with T1, BTK(WT) in HEK293-BTK(WT) cells (Homo sapiens, UniProt Q06187).
T1 construct: Full-length cDNAs of BTK containing C481S mutation was generated by mutagenesis; expressed in transfected cells
Description: HEK293-BTK(WT) p-BTK ELISA. Particulars: 1.5 hour. Format: cell-based. As for the experimental part: (§1) The mutated BTK cDNAs were confirmed by sequencing. […] The transfected cells were selected in 2 μg/mL of puromycin. Stable polyclonal cell lines were confirmed by WB and used for further study. […] All the cells were maintained in a humidified incubator at 37° C. with 5% CO2.
(§2) The test compounds were added to the cells and cells were incubated for 1.5 hour at 37° C., 5% CO2. […] The plate was read on a Multiscan Spectrum reader set to 450 nm wavelengths. The data were processed in Graph Pad Prism software.
(In an ELISA, binding on a coated surface is turned into a signal by an enzyme label.)

In a further data set the target is T2, Recombinant BTK(C481S) (Homo sapiens, UniProt Q06187, C481S).
T2 construct: purchased SignalChem
T2 sequence (Q06187 whole entry C481S): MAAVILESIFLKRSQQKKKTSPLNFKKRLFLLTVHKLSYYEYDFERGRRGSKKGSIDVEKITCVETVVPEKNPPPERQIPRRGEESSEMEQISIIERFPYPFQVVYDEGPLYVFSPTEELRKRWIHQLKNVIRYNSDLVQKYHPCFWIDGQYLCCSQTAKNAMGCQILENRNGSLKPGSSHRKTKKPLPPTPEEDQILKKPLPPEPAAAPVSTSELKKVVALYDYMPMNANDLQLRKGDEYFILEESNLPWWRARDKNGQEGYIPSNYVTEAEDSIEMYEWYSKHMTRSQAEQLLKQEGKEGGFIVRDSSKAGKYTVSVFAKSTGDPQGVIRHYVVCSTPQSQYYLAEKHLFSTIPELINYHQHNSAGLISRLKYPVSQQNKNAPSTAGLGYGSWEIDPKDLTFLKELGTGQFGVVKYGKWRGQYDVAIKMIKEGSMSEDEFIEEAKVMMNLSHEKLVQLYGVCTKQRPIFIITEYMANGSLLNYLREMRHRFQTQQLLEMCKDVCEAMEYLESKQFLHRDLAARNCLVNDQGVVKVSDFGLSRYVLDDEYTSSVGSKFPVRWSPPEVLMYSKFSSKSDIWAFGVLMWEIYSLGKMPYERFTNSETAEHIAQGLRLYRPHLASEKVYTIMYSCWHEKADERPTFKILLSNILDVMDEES
The data set is described as follows: BTK C481S HTRF kinase assay. Format: biochemical. Particulars: 30 min pre-incubation, 120 min reaction. As for the experimental part:
[The procedure below names another variant; the source lists this variant under the same test.] Recombinant BTK wild type (BTK WT) was purchased from Thermo fisher.
In brief, recombinant kinases were pre-incubated in the presence or absence of compound at room temperature for 30 minutes. The reaction was initiated by the addition of the ATP and substrate peptide which could be phosphorylated by kinases in the reaction. After 120 minutes incubation, the reaction was stopped by the addition of the detection reagent mix containing EDTA.

Another data set concerns TMD-8 cells. The data set is described as follows: TMD-8 anti-proliferation assay. Format: cell-based. The note with it: 72 hours. As for the experimental part: TMD-8 Anti-Proliferation Assay
TMD-8 cells were prepared in RPMI1640 media containing 10% foetal bovine, and plated in 384 well plates at 1500 cells per well, The cells were incubated overnight at 37° C., 5% CO2. After incubation, compounds with different concentration were added to the assay plates and incubate cells for a further 72 hours at 37° C., 5% CO2. Following 72 hours incubation, 15 μl of CellTiter 96® AQueous One Solution Reagent was added to each well and the plates incubated at room temperature for 30 mins. Cell viability was determined using the CellTiter-Glo (Promega, USA). The CellTiter-Glo assay was performed according to the manufacturer's instructions, and luminescence was determined in a multi-label reader (Envision, PerkinElmer, USA). The data were processed in XLfit software.

The nature of data set [2]: Short oral absorption (SOA) assay in rats, brain penetration. Particulars: rat. The data set is classed as in vivo. As for the experimental part:
Short Oral Absorption (SOA) Assay in Rats.
(§3) A Short oral absorption (SOA) model is an in-vivo screening model to identify brain penetration of a compound. To evaluate the potential of a compound to cross the blood-brain barrier in rats, total brain-to-plasma ratio (Kp,brain) was measured AUCbrain/AUCplasma. CSF-to-plasma ratio (Kp,CSF) was determined by either AUCCSF/AUCplasma or the average of CSF-to-plasma ratios at available time points after oral administration, respectively. Free fractions of in biological matrix were determined by in vitro plasma and brain binding assay in a separate study. Kp,uu,brain and Kp,uu,CSF were calculated by the following equations: (1) Kp,uu,brain=Kp, brain×fu,brain/fu,plasma; (2) Kp,uu,CSF=Kp,CSF/fu,plasma.

A further data set in a line: Hu Mic Clint. Format: in vitro ADME, human.
A short description of data set [3]: Log D determination (octanol/phosphate buffer). Format: physicochemical. Particulars: 25° C. As for the experimental part: 10 μL of working solution of each cassette is placed in order into respective 96-well rack position (Log D plate). Add 500 μL of saturated octanol into each vial of the above cap-less Log D plate followed by the addition of 500 μL of saturated phosphate buffer. Seal with a moulded PTFE/SIL 96-Well Plate Cover.
The samples are centrifuged at 4,000 rpm at 25° C. for 30 minutes to separate the phases. Pipette and syringe are used to pipette about 100 μL from the octanol and buffer phases to a new 96-well plate, respectively.
5 μL of octanol sample is transferred to a new 96-well plate, followed by addition of 495 μL of a mixture of H2O and acetonitrile containing internal standard (1:1) as 100 fold octanol samples. Vortex for 5 minutes at 1,000 rpm.
50 μL of 100 fold samples are transferred to new 96-well plate, followed by addition of 450 μL of a mixture of H2O and acetonitrile containing internal standard (1:1) as 1,000 fold octanol samples. Vortex for 5 minutes at 1,000 rpm.
The 1,000 folds octanol samples are serially diluted into 10,000, 100,000 and 1,000,000 folds with a mixture of H2O and acetonitrile containing internal standard (1:1).
50 μL of buffer samples are transferred to new 96-well plate, followed by addition of 450 μL of a mixture of H2O and acetonitrile containing internal standard (1:1) as 10 folds buffer samples. Vortex for 5 minutes at 1,000 rpm.
The 10 folds buffer samples are serially diluted into 100, 1,000 and 10,000 folds with a mixture of H2O and acetonitrile containing internal standard (1:1). The samples are evaluated by LC/MS/MS analysis. All compounds are tested in singlicate.
All calculations are carried out using Microsoft Excel. The concentrations of test compound in octanol/buffer solution are evaluated by LC/MS/MS. Calculate the Log D value of the test compound as follows:
[formula] DF means the dilution factor. Procedure for Protein Binding Measurements in Human Plasma by Using Equilibrium Dialysis

The nature of data set [4]: In vitro plasma and brain binding assay (free fractions). Format: in vitro ADME, rat. As for the experimental part: as §3
For data set [5], the target named is T3, BTK-C481S in HEK293-BTK(C481S) cells (Homo sapiens, UniProt Q06187, C481S).
T3 construct: Full-length cDNAs of BTK containing C481S mutation was generated by mutagenesis; expressed in transfected cells
T3 sequence (Q06187 whole entry C481S): as above
The data set is described as follows: HEK293-BTK(C481S) p-BTK ELISA. Format: cell-based. The note with it: 1.5 hour. As for the experimental part:
as §1, §2

pIC50: −log10 of the molar value. Like-named read-outs stand apart in the source and are kept apart here.

Usually pIC50 stands for the negative decadic logarithm of the IC50, by convention in mol/L. What is called Kp is the ratio of the level in a tissue or fluid to that in plasma or blood. One may read the logD as the decadic logarithm of the distribution of all forms, ionised or not, between an organic phase and buffer at a given pH. A lower logD goes with lower lipophilicity. `Nc1ncnn2c(C3CCC(CO)OC3)nc(-c3ccc(Oc4ccccc4)cc3F)c12` (single isomer, unassigned) [Compound 10, Trans-(5-(4-amino-5-(2-fluoro-4-phenoxyphenyl)imidazo[5,1-f][1,2,4]triazin-7-yl)tetrahydro-2H-pyran-2-yl)methanol]: the pIC50 in data set [1] was 7.22; at Recombinant BTK(C481S), 9.02; in the data set on TMD-8 cells it was 7.49; in data set [5] it was 6.77. The same compound gave a Kp in data set [2] (brain, AUCbrain/AUCplasma) of 0.38. The Kp uu was 0.56 in data set [2] (Kp,CSF/fu,plasma, read-out: Kp, uu CSF) and 0.23 in data set [2] (Kp,brain×fu,brain/fu,plasma, read-out: Kp, uu brain). Besides, the “Hu Mic Clint” value in the data set “Hu Mic Clint” worked out at 7.0 µL/min/mg. The logD in data set [3] was 3.07. Also, the fraction unbound in data set [4] (rat brain free fraction, read-out: Rat fu, br (%)) stood at 0.022; in data set [4] (rat plasma free fraction, read-out: Rat fu, pl (%)), 0.037.
